Experimental data as given in US7713960B2, “Inhibition of the Raf/Mek/P-Erk pathway for treating cancer” (University of South Florida, priority 2005, dated 2010).
Where a name gives a salt, the structure may show the parent alone.

Experiments:
ACHN cells [1] = assay: Total cellular cAMP measurement, ACHN; assay type: cell-based, human
Protocol: Total cellular cAMP measurement—The measurement of total cellular cAMP was done using a cAMP Biotrak ™ Enzymeimmunoassay (EIA) system (Amersham Biosciences, Piscataway, N.J.) according to the manufacturer's protocol. Briefly, 2000 cells were plated into each well of a 96 well plate. The next day cells were treated with increasing concentrations of ARA-211 or with vehicle for one hour. Alternatively, MDA-MB-231 cells were pre-treated with antagonists to the α1 (Prazosin, Sigma), α2 (Yohimbine, Sigma), β1 (Metoprolol, Sigma), and β2 (ICI 118.551, Sigma) adrenergic receptors at 100 nM for 15 minutes followed by treatment with 10 μM ARA-211 for 45 minutes. Cells were then lysed directly in the wells using the supplied lysis buffer. The lysate was transferred to a 96-well cAMP ELISA plate, and results were quantified using a Wallac Victor 2 plate reader.

P-p38 = P-p38 levels (Western blotting), MDA-MB-231; assay type: cell-based, human
total Erk 1/2 = assay: Total Erk 1/2 levels, MDA-MB-231; assay type: cell-based, human; conditions: at 10 nM
Protocol: Western Blotting—Treated cell samples were lysed in 30 mM HEPES, 10 mM NaCl, 5 mM MgCl2, 25 mM NaF, 1 mM EGTA, 1% Triton-X-100, 10% Glycerol, 2 mM Sodium orthovanidate, 10 μg/mL aprotinin, 10 μg/mL soybean trypsin inhibitor, 25 μg/mL leupeptin, 2 mM phenylmethylsulfonylfluoride (PMSF), 6.4 mg/mL p-nitrophenylphosphate for 30 minutes at 4° C., and proteins run on SDS-PAGE gels then transferred to nitrocellulose membranes. Membranes were blocked in either 5% milk in PBS, pH 7.4, containing 0.1% Tween-20 (PBS-T) or 1% BSA in TBS, pH 7.5, containing 0.1% Tween-20 (TBS-T). Phospho-STAT3 and phospho-AKT antibodies were diluted in 1% BSA in TBS-T while phospho-c-Raf, phospho-Mek, and phospho-p44/p42 MAPK antibodies (Cell Signaling) were diluted in 5% milk in PBS-T for either 1 hour at room temperature or overnight at 4° C. HRP-conjugated secondary antibodies (Jackson ImmunoResearch, West Grove, Pa.) were diluted in 5% milk in PBS-T or TBS-T at a 1:1000 dilution for one hour at room temperature. Western blots results were visualized using enhanced chemiluminescence. Stripping of the membranes for reblotting was done using stripping buffer (62.5 mM Tris pH 7.6, 2% SDS, 0.7% 2-mercaptoethanol) at 50° C. for 30 minutes.

c-Raf-1 = molecular target: T1, c-Raf-1 (Homo sapiens, UniProt P04049); assay: In vitro kinase assay, c-Raf-1 immunoprecipitated from MDA-MB-231 cells; assay type: biochemical; conditions: immunoprecipitated kinase treated in vitro, 10 μM
T1 construct: c-Raf-1 and Mek-1, immunoprecipitated from MDA-MB-231 cells; endogenous in cells; host or cells: MDA-MB-231
Protocol: In Vitro Kinase Assays—MDA-MB-231 cells (2×10^6) were lysed for 30 minutes at 4° C. in RIPA-150 buffer (10 mM Tris pH 7.5, 150 mM NaCl, 10% glycerol, 5 mM EDTA, 1% Triton X-100, 0.1% SDS, 100 μM sodium orthovanadate, 1 μM aprotinin, 10 μM leupeptin, 10 μM antipain). Cell debris was pelleted at 13000 rpm for 15 minutes at 4° C. and the lysate was rocked overnight with 10 μg of either c-Raf or MEK antibodies (Santa Cruz Biotechnologies, Santa Cruz, Calif.). 25 μl of protein A/G PLUS agarose (Santa Cruz Biotechnology) was then added and rocked for 4 hours at 4° C. Samples were spun at 2000 rpm for 5 minutes to collect the agarose beads, which were then washed four times with lysis buffer. On the final wash each pellet was divided into 5. […]

ACHN cells [2] = assay: Nude mouse xenograft model, ACHN (s.c.); assay type: in vivo, nude mice; conditions: i.p. 200 mpk/day
Source text: Anti-tumor activity in nude mouse xenograft model—Female athymic nude (nu/nu) mice, 5-6 weeks old, were purchased from Charles River (Wilmington, Mass.) and allowed to acclimate in the animal facility for one week. After harvesting, A-549, SNB-19, ACHN, and HCT-116 cells were, resuspended in sterile PBS, and injected s.c. into the right and left flanks (10×10^6 cells per flank) of the mice as previously described (Sun et al., 2005). For MDA-MB-231, cells were harvested and resuspended in PBS (10×10^6 cells per 50 μl) and an equal volume of Matrigel (BD Biosciences, San Jose, Calif.). 100 μl of MDA-MB-231 cells in PBS/Matrigel were injected s.c. into the mammary fat pads between the 2nd and 3rd nipples on each side of the mice. Once the tumors reached approximately 200-300 mm^3 the mice were randomized and treated i.p. with 0.1 ml vehicle (PBS) or ARA-211. Each treatment group consisted of five mice (2 tumors per mouse, a total of 10 tumors). The tumor volumes were determined by measuring the length (l) and width (w) and calculating the volume (V=w^2l/2). Statistical significance between the control and treated animals was determined using a student's t test.

Rap-1 = Rap-1 activation assay, ACHN cells; assay type: cell-based, human
Protocol: The effect of B2AR stimulation on Rap1 was investigated using the following methods: A Rap-1 activation assay kit (Upstate, Temecula, Calif.) was used according to protocol to determine if stimulation of the B2AR by ARA-211, and subsequent downstream signaling resulting in inhibition of P-Erk 1/2, is mediated by activation of Rap-1 directly by the Rap-1 guanine nucleotide exchange factor Epac. […] Cells were incubated with drugs for 1 hour unless noted otherwise. Cells were then lysed, the positive control lysate was incubated with 10 mM EDTA and 100 μM GTPγS and incubated for 30 minutes to load GTP onto Rap-1. Lysates from all samples were then incubated with 25 μg GST-RalGDS-Rap-1 binding domain beads for 45 minutes, washed with assay buffer 3×, resuspended in 40 μl of 2×Laemmli sample buffer and boiled for 5 minutes. Samples were resolved by SDS-PAGE electrophoresis, transferred to nitrocellulose, blotted overnight with 1 μ/ml polyclonal anti-Rap-1, and visualized by chemiluminescence.

T1 sequence (P04049 whole entry): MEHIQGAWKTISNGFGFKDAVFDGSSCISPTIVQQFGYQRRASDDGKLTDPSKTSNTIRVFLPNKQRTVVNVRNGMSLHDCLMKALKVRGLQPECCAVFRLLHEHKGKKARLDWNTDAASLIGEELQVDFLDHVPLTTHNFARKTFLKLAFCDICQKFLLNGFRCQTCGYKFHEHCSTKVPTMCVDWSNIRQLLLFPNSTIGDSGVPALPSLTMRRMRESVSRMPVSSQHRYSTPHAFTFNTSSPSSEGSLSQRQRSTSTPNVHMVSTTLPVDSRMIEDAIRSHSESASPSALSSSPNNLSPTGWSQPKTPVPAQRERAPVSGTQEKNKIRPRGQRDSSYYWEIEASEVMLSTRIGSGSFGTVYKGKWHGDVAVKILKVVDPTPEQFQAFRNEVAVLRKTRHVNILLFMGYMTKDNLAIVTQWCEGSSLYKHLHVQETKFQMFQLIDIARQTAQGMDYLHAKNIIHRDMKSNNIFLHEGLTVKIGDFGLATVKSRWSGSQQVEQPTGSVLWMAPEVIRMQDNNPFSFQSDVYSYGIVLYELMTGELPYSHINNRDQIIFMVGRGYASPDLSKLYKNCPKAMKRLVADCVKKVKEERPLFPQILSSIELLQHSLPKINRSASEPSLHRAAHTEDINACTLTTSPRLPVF

CC(C)(C)NCC(O)c1ccc(O)c(CO)n1 (stereo not shown) [ARA-211, 2-hydroxymethyl-3-hydroxy-6-(1-hydroxy-2-tert-butylaminoethyl) pyridine, dihydrochloride]
cAMP (Fold Induction) (ACHN cells [1]): 16.5 ± 3.2 Fold
P-p38 levels (P-p38): not
levels of total Erk 1/2 (total Erk 1/2): without affecting
in vitro c-Raf-1 kinase activity (c-Raf-1): did not inhibit
growth of tumors (ACHN cells [2]): suppressed tumor growth
Rap-1 activation (GTP-loaded Rap-1) (Rap-1; 10 μM, 1 hour): activated Rap-1
Rap-1 activation after blocking PKA kinase activity (Rap-1; pre-treatment with 10 μM H89 (1 hr) followed by ARA-211): had no effect on the ability of ARA-211 to stimulate Rap-1 activation
